Experimental findings from patent US20240124529A1, “ANTIVIRAL […]-[…]-CoV-2 PEPTIDES AND USES THEREOF” (Dana-Farber Cancer Institute, Inc., priority 2020, published 2024) are described below.

One data set deals with Proteinase K (Parengyodontium album, UniProt P06873). The data set is described as follows: in vitro. As to conditions: pH 7.4.
Data set [1] is classed as physicochemical. To be noted: 25-50 μM peptide in 50 mM potassium phosphate (pH 7.5) or water.

Bridge positions count the residues as written; N and C are the ends. Square brackets hold non-standard residues; d marks the D form. Peptide text beside a SMILES is read from it. S5 = C=CCCC[C@](C)(N)C(=O)O; Nle = CCCC[C@H](N)C(=O)O A value given as a limit tells only on which side of the number the result lay.

Sequence of Proteinase K (P06873 106-384): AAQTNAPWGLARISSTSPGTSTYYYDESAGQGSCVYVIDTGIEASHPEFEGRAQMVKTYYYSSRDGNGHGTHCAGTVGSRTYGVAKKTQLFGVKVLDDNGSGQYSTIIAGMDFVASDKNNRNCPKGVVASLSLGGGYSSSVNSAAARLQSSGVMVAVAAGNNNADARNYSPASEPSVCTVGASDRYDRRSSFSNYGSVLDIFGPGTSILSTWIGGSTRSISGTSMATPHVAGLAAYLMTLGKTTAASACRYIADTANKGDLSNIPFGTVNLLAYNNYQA

A word on the half-life: it is the time needed for the level to fall by half in the phase considered. Read a high half-life as slow loss. As a reminder, the IC50 is the concentration that inhibits the measured activity by half. High values mean lower potency, low ones higher potency. In turn, `CC[C@H](C)[C@H](NC(C)=O)C(=O)N[C@@H](CCC(N)=O)C(=O)N[C@@]1(C)CCCC=CCCC[C@@](C)(C(=O)N[C@@H](CC(C)C)C(=O)N[C@@H](CC(N)=O)C(=O)N[C@@H](CCC(=O)O)C(=O)N[C@H](C(=O)N[C@@H](C)C(=O)N[C@@H](CCCCN)C(=O)N[C@@]2(C)CCCC=CCCC[C@@](C)(C(=O)N[C@@H](CC(C)C)C(N)=O)NC(=O)[C@H](CCC(=O)O)NC(=O)[C@H](CC(N)=O)NC(=O)[C@H](CC(C)C)NC2=O)C(C)C)NC(=O)[C@H](CC(=O)O)NC(=O)[C@H]([C@@H](C)CC)NC(=O)[C@H](CCC(=O)O)NC1=O` [SEQ ID NO:52, IQX1EIDX2LNEVAKX3LNEX4L] (Ac-IQ[S5]EID[S5]LNEVAK[S5]LNE[S5]L-NH2; staple 3-7, 14-18) registered a half-life at Proteinase K of more than 1000 min. The IC50 with SARS-CoV-2 is less than 6 µM. At Proteinase K, `CC[C@H](C)[C@H](NC(C)=O)C(=O)N[C@@H](CCC(N)=O)C(=O)N[C@@H](CCCCN)C(=O)N[C@@H](CCC(=O)O)C(=O)N[C@H](C(=O)N[C@@H](CC(=O)O)C(=O)N[C@@H](CCCNC(=N)N)C(=O)N[C@@H](CC(C)C)C(=O)N[C@@H](CC(N)=O)C(=O)N[C@@H](CCC(=O)O)C(=O)N[C@H](C(=O)N[C@@H](C)C(=O)N[C@@H](CCCCN)C(=O)N[C@@H](CC(N)=O)C(=O)N[C@@H](CC(C)C)C(=O)N[C@@H](CC(N)=O)C(=O)N[C@@H](CCC(=O)O)C(=O)N[C@@H](CO)C(=O)N[C@@H](CC(C)C)C(N)=O)C(C)C)[C@@H](C)CC` [SEQ ID NO:10, reference compound] gave a half-life of 35 min.

On to “SLDQINVTFLDLEYEMKKLEEAIKKLEESYIDLKEL [SEQ ID NO:110, reference compound]”, for which the “alpha-helical structure in solution by circular dichroism” value in data set [1] was “little to no alpha-helical structure”.

On Proteinase K, `CCCC[C@@H]1NC(=O)[C@H](CCC(=O)O)NC(=O)[C@H](Cc2ccc(O)cc2)NC(=O)[C@@](C)(NC(=O)[C@H](CC(C)C)NC(=O)[C@H](CC(=O)O)NC(=O)[C@H](CC(C)C)NC(=O)[C@H](Cc2ccccc2)NC(=O)[C@@H](NC(=O)[C@@H](NC(=O)[C@H](CC(N)=O)NC(=O)[C@@H](NC(=O)[C@H](CCC(N)=O)NC(=O)[C@H](CC(=O)O)NC(=O)[C@H](CC(C)C)NC(=O)[C@H](CO)NC(C)=O)[C@@H](C)CC)C(C)C)[C@@H](C)O)CCCC=CCCC[C@@](C)(C(=O)N[C@@H](CCCCN)C(=O)N[C@@H](CC(C)C)C(=O)N[C@@H](CCC(=O)O)C(=O)N[C@@H](CCC(=O)O)C(=O)N[C@@H](C)C(=O)N[C@H](C(=O)N[C@@]2(C)CCCC=CCCC[C@@](C)(C(=O)N[C@@H](CO)C(=O)N[C@@H](Cc3ccc(O)cc3)C(=O)N[C@H](C(=O)N[C@@H](CC(=O)O)C(=O)N[C@@H](CC(C)C)C(=O)N[C@@H](CCCCN)C(=O)N[C@@H](CCC(=O)O)C(N)=O)[C@@H](C)CC)NC(=O)[C@H](CCC(=O)O)NC(=O)[C@H](CC(C)C)NC(=O)[C@H](CCCCN)NC2=O)[C@@H](C)CC)NC1=O` [SEQ ID NO:177, SLDQINVTFLDLX1YEBX2KLEEAIX3KLEX4SYIDLKE] (Ac-SLDQINVTFLDL[S5]YE[Nle][S5]KLEEAI[S5]KLE[S5]SYIDLKE-NH2; staple 13-17, 24-28) showed a half-life of 840 min. `CC[C@H](C)[C@H](NC(=O)[C@H](Cc1ccc(O)cc1)NC(=O)[C@H](CCC(N)=O)NC(=O)[C@H](CCC(=O)O)NC(=O)[C@H](Cc1ccc(O)cc1)NC(=O)[C@H](CCCCN)NC(=O)CNC(=O)[C@H](CC(C)C)NC(=O)[C@H](CCC(=O)O)NC(=O)[C@H](CCC(N)=O)NC(=O)[C@H](CC(C)C)NC(=O)[C@H](CC(=O)O)NC(=O)[C@@H](NC(=O)[C@H](CC(C)C)NC(=O)[C@H](CO)NC(=O)[C@]1(C)CCCC=CCCC[C@](C)(NC(=O)[C@H](C)NC(=O)[C@@H](NC(=O)[C@H](CCC(=O)O)NC(=O)[C@H](CC(N)=O)NC(=O)[C@H](CC(C)C)NC(=O)[C@]2(C)CCCC=CCCC[C@](C)(NC(=O)[C@H](CCC(N)=O)NC(=O)[C@@H](NC(=O)[C@H](CC(N)=O)NC(=O)[C@@H](NC(=O)[C@@H](NC(=O)[C@H](CO)NC(=O)[C@H](C)NC(=O)[C@H](CC(N)=O)NC(=O)[C@@H](NC(=O)CNC(=O)[C@H](CO)NC(=O)[C@@H](NC(C)=O)[C@@H](C)CC)[C@@H](C)CC)C(C)C)C(C)C)[C@@H](C)CC)C(=O)N[C@@H](CCC(=O)O)C(=O)N[C@@H]([C@@H](C)CC)C(=O)N[C@@H](CC(=O)O)C(=O)N2)C(C)C)C(=O)N[C@@H](CC(N)=O)C(=O)N[C@@H](CC(C)C)C(=O)N[C@@H](CC(N)=O)C(=O)N1)[C@@H](C)CC)C(N)=O` [SEQ ID NO:158] gave a half-life at Proteinase K of 33 min.
